Experimental data published in US10494338B2, “Prostaglandin derivative” (AGC INC., priority 2016, dated 2019).

system: rat platelet aggregation; experiment: Inhibitory action on rat platelet aggregation in vitro (ADP-induced, platelet-rich plasma); type: cell-based; conditions: SD rat PRP, ADP 2 μmol/L; relative activity from IC50, activity of IC50 value of PGE1 = 100
Protocol: Experimental Example 2: Evaluation of Inhibitory Action on Rat Platelet Aggregation In Vitro (1) Preparation of Rat Platelet-Rich Plasma In the same manner as in the above-mentioned Experimental Example 1(1), blood samples were collected from the abdominal artery of 8- to 9-week-old male SD rats. PRP was diluted with PPP and the number of platelet was adjusted to 63.2×10^4/μL. (2) Measurement of Platelet Aggregation Ability In the same manner as in the above-mentioned Experimental Example 1(2) except that the final concentration of ADP was 2 μmol/L, the compound of the present invention, prostaglandin E1 (PGE1:positive control substance) or vehicle control was added as a test substance, and the maximum response of aggregation was measured. (3) Evaluation of Platelet Aggregation Inhibitory Action In the same manner as in the above-mentioned Experimental Example 1(3), IC50 values were determined from the aggregation inhibition ratio of the test substance, and the relative activity (%) of each test substance was calculated by defining the activity of IC50 value of PGE1 as 100.

In order of rising “Relative activity (%)” value:
1. CCCCC[C@H](O)/C=C/[C@H]1[C@H](O)CC(=O)[C@@H]1CCCCCCC(=O)O [PGE1, prostaglandin E1, reference compound]  100%
2. CCC#CC[C@H](C)[C@H](O)/C=C/[C@H]1[C@H](O)CC(=O)[C@@H]1CCCCCC(F)(F)C(=O)O [compound (1)-8, 2,2-difluoro-7-((1R,2R,3R)-3-hydroxy-2-((1E,3S,4S)-3-hydroxy-4-methylnon-1-en-6-yn-1-yl)-5-oxocyclopentyl)heptanoic acid]  817%
3. CCC#CC[C@H](C)C(O)/C=C/[C@H]1[C@H](O)CC(=O)[C@@H]1CCCCCCC(=O)OC (stereo partly drawn) [compound (1)-3, methyl ((1R,2R,3R)-3-hydroxy-2-((1E,3RS,4S)-3-hydroxy-4-methylnon-1-en-6-yn-1-yl)-5-oxocyclopentyl)heptanoate]  2175%
